# Experiments:
# human NK1-receptor = human NK1-receptor (Homo sapiens, UniProt P25103); assay: Functional cellular test, Ca2+ measurements using FLIPR for NK1 activity; assay type: cell-based; parameters: expressed in transfected cells; host or cells: CHO fibroblast cells; settings: for pA2 data for NK1: CHO cells, human NK1, FLIPR Ca2+, agonist substance P 10^-8 M
# From the text: The NK receptor is coupled to Gq.
# All steps were done under sterile conditions.
# NK2-receptor = target: T1, NK2-receptor (Cavia porcellus, UniProt Q64077); assay: Functional NK2-receptor antagonism in gall bladder preparations isolated from guinea pigs; settings: neurokinin A-induced contraction
# T1 construct: from tissue; host or cells: whole animal (Pirbright-White guinea pigs), in vivo
# T1 sequence (Q64077 1-402): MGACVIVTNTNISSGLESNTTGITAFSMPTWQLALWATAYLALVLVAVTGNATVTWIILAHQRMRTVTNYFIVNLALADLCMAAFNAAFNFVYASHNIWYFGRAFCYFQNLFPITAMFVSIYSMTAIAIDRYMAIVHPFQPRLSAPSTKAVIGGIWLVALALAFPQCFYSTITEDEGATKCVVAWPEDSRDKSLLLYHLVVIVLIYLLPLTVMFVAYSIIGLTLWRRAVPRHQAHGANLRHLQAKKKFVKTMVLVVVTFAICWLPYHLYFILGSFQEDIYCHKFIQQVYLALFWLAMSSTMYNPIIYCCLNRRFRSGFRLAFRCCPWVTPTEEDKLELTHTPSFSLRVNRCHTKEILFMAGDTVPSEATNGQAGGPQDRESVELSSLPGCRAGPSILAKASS
# Method: 6. Determination of Functional NK2-Receptor Antagonism of Test Compounds in Tissue Isolated from Guinea Pigs.
# (§1) The NK2 antagonistic action of test compounds was tested in gall bladder preparations isolated from guinea pigs. The preparations were kept in an oxygenated nutrient solution kept at 37° C. For measuring contraction of the gall bladder muscle, the preparations were fixed to a hook and connected to force displacement transducers. Contractions were recorded on a pen recorder.
# Before (predrug) and after the administration of the test compound such contractions were measured and quantified in percent of the predrug contraction. 2-3 concentrations of the test compound were applied showing the inhibition of the receptor stimulation concentration dependently. […]
# NK3-receptor [1] = target: T2, NK3-receptor (Cavia porcellus, UniProt P30098); assay: Functional NK3-receptor antagonism in ileal preparations isolated from guinea pigs; settings: guinea pig ileum, [MePhe7]-neurokinin B-induced contraction
# T2 construct: from tissue; host or cells: whole animal (Dunkin Hartley guinea pigs), in vivo
# T2 sequence (P30098 1-440): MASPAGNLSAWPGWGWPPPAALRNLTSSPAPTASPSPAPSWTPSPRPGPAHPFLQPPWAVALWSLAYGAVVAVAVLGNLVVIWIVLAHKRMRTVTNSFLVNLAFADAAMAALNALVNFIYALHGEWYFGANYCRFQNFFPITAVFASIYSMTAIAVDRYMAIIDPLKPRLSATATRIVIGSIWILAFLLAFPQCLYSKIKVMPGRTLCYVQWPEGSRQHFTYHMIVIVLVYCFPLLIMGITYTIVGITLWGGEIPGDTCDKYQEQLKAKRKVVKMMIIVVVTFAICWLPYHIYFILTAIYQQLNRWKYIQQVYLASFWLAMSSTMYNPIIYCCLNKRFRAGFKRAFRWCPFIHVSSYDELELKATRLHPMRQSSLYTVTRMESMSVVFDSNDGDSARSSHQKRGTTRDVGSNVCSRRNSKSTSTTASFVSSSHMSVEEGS
# Method: 7. Determination of Functional NK3-Receptor Antagonism of Test Compounds in Tissue Isolated from Guinea Pigs.
# as §1, with “NK3-antagonistic” for “NK2 antagonistic”, “ileal” for “gall bladder”, “longitudinal muscle of the ileum,” for “gall bladder muscle,”
# The NK3-receptors were stimulated with the NK3-receptor agonist [MePhe^7]-neurokinin B, causing a contraction of the muscle. Before (predrug) and after the administration of the test compound such contractions were measured and quantified in percent of the predrug contraction. 2-3 concentrations of the test compound were applied showing the inhibition of the receptor stimulation concentration dependently. […] The pIC50 value indicates the inhibitory potency of the test compounds to the NK3-receptor.
# NK3-receptor [2] = target: T3, NK3-receptor (Meriones unguiculatus, UniProt Q2YHR0); assay: NK3-receptor-antagonistic effectiveness in vivo, senktide-induced hypothermia in gerbils; settings: gerbil; for Inhibition of temperature increase at t = 60 minutes after oral (po) administration: senktide 0.03 mg/kg sc; for Inhibition of temperature increase at a dose of 10 mg/kg after parenteral (ip) administration: 10 mg/kg ip
# T3 construct: from tissue; host or cells: whole animal (male gerbils), in vivo
# T3 sequence (Q2YHR0 1-454): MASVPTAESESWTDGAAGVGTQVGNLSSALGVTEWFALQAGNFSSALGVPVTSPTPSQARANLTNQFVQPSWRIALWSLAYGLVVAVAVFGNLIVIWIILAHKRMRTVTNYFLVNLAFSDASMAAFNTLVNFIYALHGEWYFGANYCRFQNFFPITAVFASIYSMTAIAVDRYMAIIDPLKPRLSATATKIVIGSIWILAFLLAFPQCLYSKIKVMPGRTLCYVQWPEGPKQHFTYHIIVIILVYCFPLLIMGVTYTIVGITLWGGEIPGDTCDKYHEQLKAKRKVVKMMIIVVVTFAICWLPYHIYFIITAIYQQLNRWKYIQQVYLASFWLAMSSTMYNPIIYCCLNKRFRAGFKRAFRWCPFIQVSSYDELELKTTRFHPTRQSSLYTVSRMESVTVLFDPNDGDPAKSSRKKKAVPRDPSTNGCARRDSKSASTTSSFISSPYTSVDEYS
# Method: 8. Determination of the NK3-Receptor-Antagonistic Effectiveness of the Test Substances In Vivo (Reduction of Body Temperature in Gerbils with Senktide-Induced Hypothermia)
# NK3 agonists reduce the body temperature of gerbils. The senktide-induced hypothermia can be antagonized by administering compounds with NK3-antagonistic properties. Measuring the level of hypothermia is indicative for the degree of activity of the test compounds. The own effect of the tested compound is assessed in the same experiment to exclude an additional hyperthermic effect.
# Male gerbils with a body weight between 60 to 90 g are housed in groups under normal day-night rhythm and under constant environmental temperature (room temperature: 21±2° C.) with a constant relative humidity level (50±10%). Water and food are freely available. […] Antagonists: see example compounds in table X.
# The animals are weighted and marked 60 minutes prior to the agonist administration. For oral (po) testings, the test compounds are administered at t=−60 minutes. For parenteral or subcutaneous (i por sc, resp.) administration, at t=−30 minutes. […] At t=15 minutes the temperature is measured orally, and registered with a 0.1° C. accuracy after a 10 second reading. This way, animals are measured every 60 sec.
# [3] = t = 30 minutes after administration
# Sequence of human NK1-receptor (P25103 whole entry): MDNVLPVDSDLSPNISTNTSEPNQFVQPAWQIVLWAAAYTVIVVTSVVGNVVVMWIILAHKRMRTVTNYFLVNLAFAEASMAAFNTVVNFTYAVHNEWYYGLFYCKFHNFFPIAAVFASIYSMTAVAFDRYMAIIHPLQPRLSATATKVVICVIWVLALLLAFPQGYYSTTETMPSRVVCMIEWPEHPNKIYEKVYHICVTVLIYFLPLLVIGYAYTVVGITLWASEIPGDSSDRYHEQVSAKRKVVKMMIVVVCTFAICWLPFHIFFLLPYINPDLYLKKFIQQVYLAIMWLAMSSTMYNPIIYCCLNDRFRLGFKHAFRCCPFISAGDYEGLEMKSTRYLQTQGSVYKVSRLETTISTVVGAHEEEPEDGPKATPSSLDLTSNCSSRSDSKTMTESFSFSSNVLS
smiles,measurement,setting,value
CN(C)C(=O)C1(N2CCCCC2)CCN(CC[C@H](CN(C)C(=O)c2cc(F)ccc2F)c2ccc(Cl)c(Cl)c2)CC1 [compound 15],pA2 data for NK1,human NK1-receptor,7.2
CN(C)C(=O)C1(N2CCCCC2)CCN(CC[C@H](CN(C)C(=O)C2CCCCC2)c2ccc(Cl)c(Cl)c2)CC1 [compound 3],"pA2, NK-2-receptor-antagonistic effectiveness on the guinea pig gall bladder in vitro",NK2-receptor,8.96
same,"pA2, functional NK3-antagonism on isolated guinea pig tissue",NK3-receptor [1],8.5
CN(C)C(=O)C1(N2CCCCC2)CCN(CC[C@H](CN(C)C(=O)c2ccccc2)c2ccc(Cl)c(Cl)c2)CC1 [compound 1],Inhibition of temperature increase at t = 60 minutes after oral (po) administration,NK3-receptor [2]; Dose: 10 mg/kg po,37%
same,Inhibition of temperature increase at t = 60 minutes after oral (po) administration,NK3-receptor [2]; Dose: 30 mg/kg po,54%
same,Kb,human NK1-receptor; read-out: pA2 data for NK1 (converted),7.94 nM
CN(C)C(=O)C1(N2CCCCC2)CCN(CC[C@H](CN(C)C(=O)c2ccc(F)cc2)c2ccc(Cl)c(Cl)c2)CC1 [compound 4],"pA2, NK-2-receptor-antagonistic effectiveness on the guinea pig gall bladder in vitro",NK2-receptor,8.86
same,Inhibition of temperature increase at a dose of 10 mg/kg after parenteral (ip) administration,NK3-receptor [2]; t = 15 minutes after administration,54%
same,Inhibition of temperature increase at a dose of 10 mg/kg after parenteral (ip) administration,NK3-receptor [2]; [3],68%
same,"pA2, functional NK3-antagonism on isolated guinea pig tissue",NK3-receptor [1],8.0
CN(C)C(=O)C1(N2CCCCC2)CCN(CC[C@H](CN(C)C(=O)c2ccc(F)cc2F)c2ccc(Cl)c(Cl)c2)CC1 [compound 13],pA2 data for NK1,human NK1-receptor,7.5
CN(C)C(=O)C1(N2CCCCC2)CCN(CC[C@H](CN(C)C(=O)c2cc(C#N)c3ccccc3c2)c2ccc(Cl)c(Cl)c2)CC1 [compound 11],"pA2, NK-2-receptor-antagonistic effectiveness on the guinea pig gall bladder in vitro",NK2-receptor,8.03
same,pA2 data for NK1,human NK1-receptor,7.9
CN(C)C(=O)C1(N2CCCCC2)CCN(CC[C@H](CN(C)C(=O)c2ccc(F)c(F)c2)c2ccc(Cl)c(Cl)c2)CC1 [compound 14],pA2 data for NK1,human NK1-receptor,7.3
"CN(C)C(=O)C1(N2CCCCC2)CCN(CC[C@H](CN(C)C(=O)c2ccc(O)cc2)c2ccc(Cl)c(Cl)c2)CC1 [compound 6, 1′-{(3S)-3-(3,4-dichlorophenyl)-4-[(4-hydroxybenzoyl)-(methyl)amino]butyl}-N,N-dimethyl-1,4′-bipiperidine-4′-carboxamide]",Inhibition of temperature increase at a dose of 10 mg/kg after parenteral (ip) administration,NK3-receptor [2]; [3],75%

# — patent publication US20070219214A1, “Dual NK2/NK3-antagonists, pharmaceutical compositions comprising them, and processes for their preparation” (Solvay pharmaceuticals GmbH, priority 2006, published 2007)
